Measurements taken from PubChem BioAssay AID330 (DTP/NCI, 2004).
Values joined by “and” are separate entries in the source; they are usually repeats but may differ in a detail not shown here. Identical values can stand only once. Inconclusive results and toxic doses are left out.

Test system: P388 leukemia ip, CD2F1 mice, survival T/C
Experiment: NCI In Vivo Anticancer Drug Screen. Data for tumor model P388 Leukemia (intraperitoneal) in CD2F1 (CDF1) mice
Details: endpoint: median survival time, higher = longer survival
In short: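 Mice carrying the transplanted tumor received test compound or vehicle. Survival was recorded in each group, and the value is the treated-group measurement divided by that of the vehicle-treated control group.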

[1] = dose: 15.0 mg/kg/injection, schedule: Q01DX005 (ip), vehicle: Klucel (hydroxypropylcellulose) (HPC)
[2] = dose: 30.0 mg/kg/injection, schedule: Q01DX005 (ip), vehicle: Klucel (hydroxypropylcellulose) (HPC)
[3] = dose: 60.0 mg/kg/injection, schedule: Q01DX005 (ip), vehicle: Klucel (hydroxypropylcellulose) (HPC)
[4] = dose: 60.0 mg/kg/injection, schedule: Q01DX005 (ip), vehicle: saline with Tween-80
[5] = dose: 120.0 mg/kg/injection, schedule: Q01DX005 (ip), vehicle: saline with Tween-80
[6] = dose: 6.25 mg/kg/injection, schedule: Q01DX009 (ip), vehicle: Klucel (hydroxypropylcellulose) (HPC)
[7] = dose: 12.5 mg/kg/injection, schedule: Q01DX009 (ip), vehicle: Klucel (hydroxypropylcellulose) (HPC)
[8] = dose: 25.0 mg/kg/injection, schedule: Q01DX009 (ip), vehicle: Klucel (hydroxypropylcellulose) (HPC)
[9] = dose: 50.0 mg/kg/injection, schedule: Q01DX009 (ip), vehicle: Klucel (hydroxypropylcellulose) (HPC)

In the case of C=Cc1cc(OC)c2c(c1)c(=O)oc1c2cc(OC)c2c(O)ccc(C3OC(C(C)O)C(O)C3O)c21 (stereo not drawn), the T/C (dose: 2.0 mg/kg/injection, schedule: Q04DX003 (ip), vehicle: DMSO) is reported as 108 % of control, the T/C (dose: 4.0 mg/kg/injection, schedule: Q04DX003 (ip), vehicle: DMSO) is reported as 114 % of control and the T/C (dose: 8.0 mg/kg/injection, schedule: Q04DX003 (ip), vehicle: DMSO) is reported as 123 % of control. The T/C [1] was 119 % of control, the T/C (dose: 16.0 mg/kg/injection, schedule: Q04DX003 (ip), vehicle: DMSO) was 155 % of control and the T/C [2] was 107 % of control. The T/C (dose: 32.0 mg/kg/injection, schedule: Q04DX003 (ip), vehicle: DMSO) was 155 % of control, the T/C [3] was 120 % of control and the T/C (dose: 200.0 mg/kg/injection, schedule: Q01DX005 (ip), vehicle: Klucel (hydroxypropylcellulose) (HPC)) was 157 % of control. The T/C (dose: 400.0 mg/kg/injection, schedule: Q01DX005 (ip), vehicle: Klucel (hydroxypropylcellulose) (HPC)) was 98 % of control.

CN(O)C(=O)/C=C/c1ccccc1 was tested, and the T/C (dose: 50.0 mg/kg/injection, schedule: Q01DX009 (ip), vehicle: distilled water + Tween-80) was 104 % of control, the T/C (dose: 100.0 mg/kg/injection, schedule: Q01DX009 (ip), vehicle: distilled water + Tween-80) was 104 % of control and the T/C (dose: 200.0 mg/kg/injection, schedule: Q01DX009 (ip), vehicle: distilled water + Tween-80) was 110 % of control.

For CC(C)(NC(=O)OC12CC3CC(CC(C3)C1)C2)C(=O)O, the T/C [4] was 109 % of control, the T/C [5] was 104 % of control and the T/C (dose: 240.0 mg/kg/injection, schedule: Q01DX005 (ip), vehicle: saline with Tween-80) was 98 % of control.

For CC(=O)OC(C)C1CC2C=C(C(N)=O)C1N(Cc1ccccc1)C2 (stereo not drawn), the T/C (dose: 8.75 mg/kg/injection, schedule: Q01DX005 (ip), vehicle: Klucel (hydroxypropylcellulose) (HPC)) was 97 % of control, the T/C (dose: 17.5 mg/kg/injection, schedule: Q01DX005 (ip), vehicle: Klucel (hydroxypropylcellulose) (HPC)) was 93 % of control and the T/C (dose: 35.0 mg/kg/injection, schedule: Q01DX005 (ip), vehicle: Klucel (hydroxypropylcellulose) (HPC)) was 97 % of control.

N#CCc1nn(-c2ccccc2)c2ncnc(N)c12 was tested, and the T/C [6] was 103 % of control, the T/C [7] was 100 % of control and 114 % of control and 94 % of control and the T/C [8] was 108 % of control and 97 % of control (2×). For the same molecule, the T/C [9] was 100 % of control and 120 % of control and 98 % of control and the T/C (dose: 100.0 mg/kg/injection, schedule: Q01DX009 (ip), vehicle: Klucel (hydroxypropylcellulose) (HPC)) was 106 % of control.

With CC(C(=O)O)n1c(=O)ssc1=O (stereo not drawn) the T/C [1] was 102 % of control, the T/C [2] was 93 % of control and the T/C [3] was 93 % of control.

With C=C(c1ccccc1)N1N=NC2CCOC21 (stereo not drawn) the T/C (dose: 50.0 mg/kg/injection, schedule: Q01DX005 (ip), vehicle: saline with Tween-80) was 105 % of control, the T/C (dose: 100.0 mg/kg/injection, schedule: Q01DX005 (ip), vehicle: saline with Tween-80) was 99 % of control and the T/C (dose: 200.0 mg/kg/injection, schedule: Q01DX005 (ip), vehicle: saline with Tween-80) was 100 % of control.

In the case of COC(=O)/C(=C/c1ccccc1)NC(C)=O, the T/C [3] is reported as 104 % of control, the T/C (dose: 120.0 mg/kg/injection, schedule: Q01DX005 (ip), vehicle: Klucel (hydroxypropylcellulose) (HPC)) is reported as 101 % of control and the T/C (dose: 240.0 mg/kg/injection, schedule: Q01DX005 (ip), vehicle: Klucel (hydroxypropylcellulose) (HPC)) is reported as 97 % of control.

For [NH-]C(C[S-])C(=O)O.[NH-]C(C[S-])C(=O)O.[O]=[Mo]1[O][Mo](=[O])[O]1 (stereo not drawn), the T/C (dose: 50.0 mg/kg/injection, schedule: Q01DX009 (ip), vehicle: saline) was 99 % of control, the T/C (dose: 100.0 mg/kg/injection, schedule: Q01DX009 (ip), vehicle: saline) was 90 % of control and the T/C (dose: 200.0 mg/kg/injection, schedule: Q01DX009 (ip), vehicle: saline) was 104 % of control.

In the case of O=C(CCl)Nc1cc2ccccc2oc1=O, the T/C [4] is reported as 105 % of control and the T/C [5] is reported as 109 % of control.

With CC(C)(C)N1C(=O)[N+]2(CCCCC2)N=C1[O-] the T/C (dose: 100.0 mg/kg/injection, schedule: Q04DX003 (ip), vehicle: saline with Tween-80) was 93 % of control, the T/C (dose: 200.0 mg/kg/injection, schedule: Q04DX003 (ip), vehicle: saline with Tween-80) was 99 % of control and the T/C (dose: 400.0 mg/kg/injection, schedule: Q04DX003 (ip), vehicle: saline with Tween-80) was 86 % of control.

With CC(C)CCC[C@@H](C)[C@H]1CC[C@H]2[C@@H]3CCC(=O)[C@](C)(CCC(=O)O)[C@H]3CC[C@]12C the T/C [6] was 96 % of control, the T/C [7] was 96 % of control and the T/C [8] was 92 % of control. The T/C [9] was 87 % of control.

For N=C1N=Nc2nc(C3(c4nc5n(c4O)C(=N)N=N5)Cc4ccccc4C3=O)c(O)n21 (stereo not drawn), the T/C (dose: 60.0 mg/kg/injection, schedule: Q01DX005 (ip), vehicle: saline) was 96 % of control, the T/C (dose: 120.0 mg/kg/injection, schedule: Q01DX005 (ip), vehicle: saline) was 103 % of control and the T/C (dose: 240.0 mg/kg/injection, schedule: Q01DX005 (ip), vehicle: saline) was 108 % of control.
